Results taken from patent publication US20230091336A1, “CANNABINOID COMPOSITIONS” (priority 2020, published 2023).
Read-outs that look alike come from different tables or passages of the source.

Tests used:
[1] = system: SOCE in U937 human monocytes; experiment: SOCE Fura-2 bioassay in U937 cells; conditions: Table 5
Description: (§1) Briefly, SOCE inhibition experiments were performed as described in Example 8, using each of the hemp extracts listed below and in Tables 6A and 6B at six concentrations each in each of the five cell types listed above to obtain dose response curves, as shown in FIGS. 11A-11SS. […] All data are averages of three independent runs±SEM. […] Hemp extracts used in FIGS. 11A-11SS are: Sour Space Candy (SSC), Hawaiian Haze (HH), Special Sauce (SS), Suver Haze (SH), White CBG (WCBG), Elektra (ELEK), Cherry Wine (CW), Lifter (LIF), Grape Soda (GS).

[2] = system: SOCE in Luva human mast cells; experiment: SOCE Fura-2 bioassay in Luva cells; conditions: Table 5
Description: as §1

[3] = system: SOCE in HEK-293 human embryonic kidney cells; experiment: SOCE Fura-2 bioassay in HEK293 cells; format: cell-based; conditions: for IC50: Table 5; for inhibitory effect in immune cells compared with non-immune HEK293 cells: 10 μM, HEK293 (FIG. 8) vs immune cells
SOCE in Jurkat T cells = experiment: SOCE Fura-2 bioassay in Jurkat cells; format: cell-based, human; conditions: for combinatory effect on SOCE inhibition when paired with CBGA (isobolographic analysis): pairs expected to inhibit 50%, FIGS. 10A-10T; for effect on SOCE Ca^2+ signals, pure compounds: 10 μM, 1 μM thapsigargin, FIG. 7A, 7C
[4] = system: SOCE in THP-1 human monocytes; experiment: SOCE Fura-2 bioassay in THP-1 cells; conditions: for combinatory effect on SOCE inhibition when paired with CBGA (isobolographic analysis): pairs expected to inhibit 50%, FIGS. 10U-10Y; for combinatory effect when paired with 2.2 μM CBGA: 10 μM cannabinoid + 2.2 μM CBGA, FIG. 10Z
[5] = system: SOCE in RBL-2H3 rat mast cells; experiment: SOCE Fura-2 bioassay in RBL-2H3 cells; conditions: Table 5
Description: as §1

[6] = Homo sapiens, U-937, read-out: IC50 SOCE, purified cannabinoids, U937
[7] = Homo sapiens, Mast cell, read-out: IC50 SOCE, purified cannabinoids, Luva
[8] = Homo sapiens, HEK293, read-out: IC50 SOCE, purified cannabinoids, HEK-293
[9] = Homo sapiens, read-out: IC50 SOCE, purified cannabinoids, Jurkat, Table 5
[10] = Homo sapiens, THP-1, read-out: IC50 SOCE, purified cannabinoids
[11] = Rattus norvegicus, RBL-2H3, read-out: IC50 SOCE, purified cannabinoids, RBL-2H3

Compound	IC50 [1, 6] [µM]	IC50 [2, 7] [µM]	IC50 [3, 8] [µM]	IC50 (SOCE in Jurkat T cells; [9]) [µM]	combinatory effect on SOCE inhibition when paired with CBGA (isobolographic analysis) (SOCE in Jurkat T cells)	IC50 [4, 10] [µM]	IC50 [5, 11] [µM]	inhibitory effect in immune cells compared with non-immune HEK293 cells [3]	effect on SOCE Ca^2+ signals, pure compounds (SOCE in Jurkat T cells)	combinatory effect on SOCE inhibition when paired with CBGA (isobolographic analysis) ([4]; THP-1)	combinatory effect when paired with 2.2 μM CBGA ([4]; THP-1)	IC50 ([1]; read-out: IC50 SOCE, purified cannabinoids, U937) [µM]	IC50 ([2]; read-out: IC50 SOCE, purified cannabinoids, Luva) [µM]	IC50 ([3]; read-out: IC50 SOCE, purified cannabinoids, HEK-293) [µM]	IC50 (SOCE in Jurkat T cells; read-out: IC50 SOCE, purified cannabinoids, Table 5) [µM]	IC50 ([4]; read-out: IC50 SOCE, purified cannabinoids, THP-1, Table 5) [µM]	IC50 ([5]; read-out: IC50 SOCE, purified cannabinoids, RBL-2H3) [µM]
C=C(C)[C@@H]1CCC(C)=C[C@H]1c1c(O)cc(CCC)c(C(=O)O)c1O [CBDVA, (1′R,2′R)-2,6-dihydroxy-5′-methyl-2′-(prop-1-en-2-yl)-4-propyl-1′,2′,3′,4′-tetrahydro-[1,1′-biphenyl]-3-carboxylic acid]	10.6	11.3	20.7	11.3	sub-additive	8.45	23.5										
C=C(C)[C@@H]1CCC(C)=C[C@H]1c1c(O)cc(CCCCC)c(C(=O)O)c1O [CBDA, (1′R,2′R)-2,6-dihydroxy-5′-methyl-4-penlyl-2′-(prop-1-en-2-yl)-1′,2′,3′,4′-tetrahydro-[1,1′-biphenyl]-3-carboxylic acid]	5.83	2.4	26.9	4.07	sub-additive	5.17	16.1	selective	fully block the Ca^2+ signals	sub-additive							
CCCc1cc(O)c(C/C=C(\C)CCC=C(C)C)c(O)c1C(=O)O [CBGVA, (E)-3-(3,7-dimethylocta-2,6-dien-1-yl)-2,4-dihydroxy-6-propylbenzoic acid]	2.86	2.53	2.11	1.15	Simple additive	2.6	4.15			sub-additive							
CCCCCc1cc(O)c(C/C=C(\C)CCC=C(C)C)c(O)c1 [CBG, (E)-2-(3,7-dimethylocta-2,6-dien-1-yl)-5-penlylbenzene-1,3-diol]	33.5	3.29	> 50	2.36	supra-additive	33.6	> 50				simple additive agonists						
CCCCCc1cc2c(c(O)c1C(=O)O)[C@@H]1C=C(C)CC[C@H]1C(C)(C)O2 [THCA, (6aR, 10aR)-1-hydroxy-6,6,9-trimethyl-3-pentyl-6a,7,8,10a-tetrahydro-6H-benzo[c]chromene-2-carboxylic acid]	8.1	0.57	20.7	2.23	Simple additive	10.4	17.5		fully block the Ca^2+ signals	sub-additive							
CCCCCc1cc(O)c2c(c1)OC(C)(C)[C@@H]1CCC(C(=O)O)=C[C@@H]21 [11-COOH-Δ9-THC, (6aR,10aR)-1-hydroxy-6,6-dimethyl-3-pentyl-6a,7,8,10a-tetrahydro-6H-benzo[c]chromene-9-carboxylic acid]								selective									
CCCCCc1cc(O)c2c(c1)OC(C)(C)c1ccc(C)cc1-2 [CBN, 6,6,9-trimethyl-3-pentyl-6H-benzo[c]chromen-1-ol]	45.3	33.4	26.9	9.09	Simple additive	> 50	42.6				simple additive agonists						
CCCCCc1cc2c(c(O)c1C(=O)O)C=C[C@@](C)(CCC=C(C)C)O2 [CBCA, (R)-5-hydroxy-2-methyl-2-(4-methylpent-3-en-1-yl)-7-pentyl-2H-chromene-6-carboxylic acid]	> 50	> 50	> 50	1.13	Simple additive	29.1	> 50										
CCCCCc1cc(O)c2c(c1)OC(C)(C)[C@@H]1CC=C(C)C[C@@H]21 [Δ8-THC, (6aR,10aR)-6,6,9-trimethyl-3-pentyl-6a,7,10,10a-tetrahydro-6H-benzo[c]chromen-1-ol]	> 50	39.7	> 50	14.2	sub-additive	> 50	> 50				sub-additive						
C=C(C)c1ccc(C)cc1-c1c(O)cc(CCCCC)cc1O [CBND, 5′-methyl-4-pentyl-2′-(prop-1-en-2-yl)-[1,1′ biphenyl]-2,6-diol]	24	19	21.4	6.7	Simple additive	> 50	32.8										
CCCCCc1cc2c(c(O)c1C(=O)O)[C@@H]1[C@H]3C(CC[C@@]3(C)O2)C1(C)C (stereo partly drawn) [CBLA, (1aS,1a1R,3aR,8bR)-8-hydroxy-1,1,3a-trimethyl-6-pentyl-1a, 1a1,2,3,3a, 8b-hexahydro-1H-4-oxabenzo[f]cyclobuta[cd]indene-7-carboxylic acid]	28.3	20.9	31.1	9.29	sub-additive	12.4	> 50										
CCCCCc1cc(O)c2c(c1)OC(C)(C)[C@@H]1CCC(C)=C[C@@H]21 [Δ9-THC, (6aR,10aR)-6,6,9-trimethyl-3-pentyl-6a,7,8,10a-tetrahydro-6H-benzo[c]chromen-1-ol]	> 50	0.97	> 50	> 50		> 50	> 50		low to no effects								
CCCc1cc(O)c2c(c1)OC(C)(C)[C@@H]1CCC(C)=C[C@@H]21 [THCV, trimethyl-3-propyl-6a,7,8,10a-tetrahydro-6H-benzo[c]chromen-1-ol]	> 50	> 50	> 50	10.7		> 50	> 50										
CCCCCc1cc(OC)c2c(c1)OC(C)(C)c1ccc(C)cc1-2 [CBNM, 1-methoxy-6,6,9-trimethyl-3-pentyl-6H-benzo[c]chromene]	> 50	> 50	> 50	> 50		> 50	> 50										
CCCc1cc(O)c(C/C=C(\C)CCC=C(C)C)c(O)c1 [CBGV, (E)-2-(3,7-dimethylocta-2,6-dien-1-yl)-5-propylbenzene-1,3-diol]	14.5	6.46	9.16	5.27	supra-additive	40.7	30.9				simple additive agonists						
CCCCCc1cc(O)c2c(c1)OC(C)(CCC=C(C)C)C=C2 (centres unmarked) [CBC, 2-methyl-2-(4-methylpent-3-en-1-yl)-7-pentyl-2H-chromen-5-ol]												40.8	26.8	18.7	13.1	> 50	31.6
